Test results: ChEMBL document CHEMBL1150742, “Verrucofortine, a major metabolite of Penicillium verrucosum var. cyclopium, the fungus that produces the mycotoxin verrucosidin” (J Nat Prod, 1988)

Legend:
Settings in all cases: in vivo
Mus musculus [1] = assay: Neurotoxicity in mouse assessed as distress at 160 mg/kg, ip; format: toxicity, organism-based; design: dose 160 mg/kg, route intraperitoneal
Mus musculus [2] = assay: Neurotoxicity in mouse assessed as labored breathing at 160 mg/kg, ip; format: toxicity, organism-based; design: dose 160 mg/kg, route intraperitoneal
Mus musculus [3] = assay: Neurotoxicity in mouse assessed as ataxia at 160 mg/kg, ip; format: toxicity, organism-based; design: dose 160 mg/kg, route intraperitoneal
Mus musculus [4] = assay: Neurotoxicity in mouse assessed as tremorgenic activity at 160 mg/kg, ip; format: toxicity, organism-based; design: dose 160 mg/kg, route intraperitoneal
[5] = Toxicity in ip dosed mouse; format: organism-based

Structure (SMILES) | Activity (Mus musculus [1]) | Activity (Mus musculus [2]) | Activity (Mus musculus [3]) | Activity (Mus musculus [4]) | LD50 [5] [mg/kg]
C=CC(C)(C)[C@@]12C[C@H]3C(=O)N[C@H](CC(C)C)C(=O)N3[C@H]1N(C(C)=O)c1ccccc12 [VERRUCOFORTINE] | Non-toxic | Non-toxic | Non-toxic | Non-toxic | –
COc1c(C)c([C@]2(C)O[C@H]2/C(C)=C/C(C)=C/[C@]2(C)O[C@H](C)[C@@]3(C)O[C@H]32)oc(=O)c1C [VERRUCOSIDIN] | – | – | – | – | 4
